{"source": "patent US20080160009A1", "about": "“Inhibiting Cav3 Isoforms and the 25B Splice Varients for the Diagnosis and Treatment of Cancer” (priority 2004, published 2008)", "system": "human PC3 prostate cancer cells", "assay": "Lifespan of SCID mice inoculated with human PC3 prostate cancer cells", "type": "in vivo", "data": [{"smiles": "COc1ccc(CCN2CCC[C@H]2COC(c2ccccc2)c2ccc(Cl)cc2)cc1", "note": "(stereo partly shown) [TH-1177]", "values": [{"measurement": "lifespan", "value": "significantly extended the lifespan"}]}]}
